The source of these data is US20160235727A1, “NOVEL PYRROLIDINE DERIVED BETA 3 ADRENERGIC RECEPTOR AGONISTS” (Merck Sharp & Dohme Corp., priority 2013, published 2016).

The target in the experiment is T1, human β3-AR (Homo sapiens, UniProt P13945).
T1 construct: expressed in transfected cells; host or cells: CHO (Chinese hamster ovary) cells, stably transfected
Nature of the experiment: cAMP functional agonist assay (LANCE TR-FRET) in CHO cells expressing cloned human β3-AR. It is filed as cell-based. To be noted: for EC50: CHO cells stably expressing cloned human β3-adrenoceptor, cAMP release, read-out: Human β3-AR Agonism EC50; for Fold drop in potency vs. 2-chloropyridine analog: EC50 of comparative example divided by EC50 of corresponding 2-chloropyridine compound; for Human β3-AR Agonist Activity (%): percent maximum activation relative to isoproterenol. How it is done: The ability of compounds to activate the human β3-AR receptor was measured using a CHO cell line stably expressing the cloned human β1-, β2-, and β3-adrenoceptors (β-AR). […] To quantify the amount of cAMP released following β-AR activation, the LANCE cAMP kit (Perking Elmer), a time-resolved fluorescence resonance energy transfer immunoassay, was used. Compounds were serially diluted in DMSO and an aliquot added to either 384-well or 96-well micro titer plates in assay buffer (5 mM HEPES, 0.1% BSA in Hank's Balanced Salt Solution). […] Following 30 min incubation at room temperature, the cells were lysed by the addition of LANCE detection buffer which contained a europium-labeled cAMP tracer. Fluorescence was measured following one hour incubation at room temperature using a Perking Elmer Envision plate reader, exciting at 340 nm and measuring emission at 615 nm and 665 nm. For each assay, a cAMP standard curve was included and used to convert fluorescence readings directly to cAMP amounts. The values were then normalized to isoproterenol, a known full agonist of β-AR, which was titrated in every assay and the EC50 determined using a custom in-house data analysis package. Along with EC50, the percent maximum activation relative to isoproterenol is reported.
The cAMP production is measured using a homogenous time-resolved fluorescence resonance energy transfer immunoassay (LANCE™, Perkin Elmer) according to the manufacture's instructions. Chinese hamster ovary (CHO) cells, stably transfected with the cloned β-adrenergic receptor (β1, β2 or β3) are harvested after 3 days of subculturing. Harvesting of cells is done with Enzyme-free Dissociation Media (Specialty Media). Cells are then counted and resuspended in assay buffer (Hank's Balanced salt solution supplemented with 5 mM HEPES, […]) containing a phosphodiesterase inhibitor (IBMX, 0.6 mM). The reaction is initiated by mixing 6,000 cells in 6 μL with 6 μL Alexa Fluor labeled cAMP antibody (LANCE™ kit) which is then added to an assay well containing 12 μL of compound (diluted in assay buffer to 2× final concentration). The reaction proceeds for 30 minutes at RT and is terminated by the addition of 24 ul detection buffer (LANCE™ kit). The assay plate is then incubated for 1 h at RT and time-resolved fluorescence measured on a Perkin Elmer Envision reader or equivalent. The unknown cAMP level is determined by comparing fluorescence levels to a cAMP standard curve.
The non-selective, full agonist β-adrenergic ligand isoproterenol is used at all three receptors to determine maximal stimulation. […] Data are analyzed using Microsoft Excel and Graphpad Prism or an internally developed data analysis software package. […]

T1 sequence (P13945 whole entry): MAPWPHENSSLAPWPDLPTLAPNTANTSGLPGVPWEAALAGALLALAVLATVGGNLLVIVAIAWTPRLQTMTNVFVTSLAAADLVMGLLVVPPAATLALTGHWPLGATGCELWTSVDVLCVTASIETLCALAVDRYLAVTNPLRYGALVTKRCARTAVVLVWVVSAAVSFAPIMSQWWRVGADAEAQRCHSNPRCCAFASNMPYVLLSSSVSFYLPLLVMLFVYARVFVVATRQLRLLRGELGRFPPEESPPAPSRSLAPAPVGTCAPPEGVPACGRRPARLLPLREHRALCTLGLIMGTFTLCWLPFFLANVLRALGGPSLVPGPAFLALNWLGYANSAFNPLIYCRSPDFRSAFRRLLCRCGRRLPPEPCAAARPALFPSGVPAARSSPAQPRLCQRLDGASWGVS

Take `CN(Cc1cnccn1)C(=O)c1ccc(C[C@@H]2CC[C@H]([C@H](O)c3ccccc3)N2)cc1` [Example 40-B, 4-(((2S,5R)-5-((R)-hydroxy(phenyl)methyl)pyrrolidin-2-yl)methyl)-N-methyl-N-(pyrazin-2-ylmethyl)benzamide]: the EC50 worked out at 0.017 µM, the “Fold drop in potency vs. 2-chloropyridine analog” value is 1.5 fold and the “Human β3-AR Agonist Activity (%)” value amounted to 99%.
As for `CC(c1cnccn1)N(C)C(=O)c1ccc(C[C@@H]2CC[C@H]([C@H](O)c3ccc(Cl)nc3)N2)cc1` (stereo partly drawn) [Example 41-A, 4-(((2S,5R)-5-((R)-(6-chloropyridin-3-yl)(hydroxy)methyl)pyrrolidin-2-yl)methyl)-N-methyl-N-(1-(pyrazin-2-yl)ethyl)benzamide], the EC50 amounted to 0.002 µM and the “Human β3-AR Agonist Activity (%)” value is 98%.
On to `CN(Cc1cncc(C#N)c1)C(=O)c1ccc(C[C@@H]2CC[C@H]([C@H](O)c3ccccc3)N2)cc1` [Example 35-B, N-((5-cyanopyridin-3-yl)methyl)-4-(((2S,5R)-5-((R)-hydroxy(phenyl)methyl)pyrrolidin-2-yl)methyl)-N-methylbenzamide], for which the concentration for a half-maximal effect (EC50) is 0.062 µM, the “Fold drop in potency vs. 2-chloropyridine analog” value worked out at 3.6 fold and the “Human β3-AR Agonist Activity (%)” value was 102%.
Take `CN(Cc1cccnc1)C(=O)c1ccc(C[C@@H]2CC[C@H]([C@H](O)c3cccnc3)N2)cc1` [Example 21-H, 4-(((2S,5R)-5-((R)-hydroxy(pyridin-3-yl)methyl)pyrrolidin-2-yl)methyl)-N-methyl-N-(pyridin-3-ylmethyl)benzamide]: the EC50 amounted to 0.038 µM, the “Fold drop in potency vs. 2-chloropyridine analog” value was found to be 8.8 fold and the “Human β3-AR Agonist Activity (%)” value came to 85%.
On to `COc1c(C)n[nH]c1CN(C)C(=O)c1ccc(C[C@@H]2CC[C@H]([C@H](O)c3ccccc3)N2)cc1` [Example 16-B, 4-(((2S,5R)-5-((R)-hydroxy(phenyl)methyl)pyrrolidin-2-yl)methyl)-N-((4-methoxy-5-methyl-1H-pyrazol-3-yl)methyl)-N-methylbenzamide], for which the EC50 came out at 0.01 µM, the “Fold drop in potency vs. 2-chloropyridine analog” value was found to be 6.2 fold and the “Human β3-AR Agonist Activity (%)” value is on record as 101%.
For `CN(Cc1cc(C(F)(F)F)[nH]n1)C(=O)c1ccc(C[C@@H]2CC[C@H]([C@H](O)c3cccnc3)N2)cc1` [Example 10-H, 4-(((2S,5R)-5-((R)-hydroxy(pyridin-3-yl)methyl)pyrrolidin-2-yl)methyl)-N-methyl-N-((5-(trifluoromethyl)-1H-pyrazol-3-yl)methyl)benzamide], the EC50 was 0.022 µM, the “Fold drop in potency vs. 2-chloropyridine analog” value was found to be 13.9 fold and the “Human β3-AR Agonist Activity (%)” value turned out to be 98%.
Turning to `COC(C)CN(C)C(=O)c1ccc(C[C@@H]2CC[C@H]([C@H](O)c3ccc(Cl)nc3)N2)cc1` (stereo partly drawn) [Example 2-A, 4-(((2S,5R)-5-((R)-(6-chloropyridin-3-yl)(hydroxy)methyl)pyrrolidin-2-yl)methyl)-N-(2-methoxypropyl)-N-methylbenzamide], the EC50 stood at 0.118 µM and the “Human β3-AR Agonist Activity (%)” value came out at 86%.
Consider `CC(c1cnccn1)N(C)C(=O)c1ccc(C[C@@H]2CC[C@H]([C@H](O)c3ccc(F)cc3)N2)cc1` (stereo partly drawn) [Example 41-F, 4-(((2S,5R)-5-((R)-(4-fluorophenyl)(hydroxy)methyl)pyrrolidin-2-yl)methyl)-N-methyl-N-(1-(pyrazin-2-yl)ethyl)benzamide], for which the EC50 was 0.006 µM, the “Fold drop in potency vs. 2-chloropyridine analog” value stood at 3.5 fold and the “Human β3-AR Agonist Activity (%)” value amounted to 83%.
As to `CN(Cc1ccc(Cl)nc1)C(=O)c1ccc(C[C@@H]2CC[C@H]([C@H](O)c3ccc(F)cc3)N2)cc1` [Example 30-F, N-((6-chloropyridin-3-yl)methyl)-4-(((2S,5R)-5-((R)-(4-fluorophenyl)(hydroxy)methyl)pyrrolidin-2-yl)methyl)-N-methylbenzamide], the EC50 was determined as 0.078 µM, the “Fold drop in potency vs. 2-chloropyridine analog” value is 24.4 fold and the “Human β3-AR Agonist Activity (%)” value came to 101%.
With `CN(Cc1cccc(=O)[nH]1)C(=O)c1ccc(C[C@@H]2CC[C@H]([C@H](O)c3ccc(Cl)cc3)N2)cc1` [Example 20-G], the EC50 amounted to 0.006 µM, the “Fold drop in potency vs. 2-chloropyridine analog” value worked out at 4.5 fold and the “Human β3-AR Agonist Activity (%)” value turned out to be 99%.
As for `CN(Cc1ccc(Cl)nc1)C(=O)c1ccc(C[C@@H]2CC[C@H]([C@H](O)c3ccc(Cl)nc3)N2)cc1` [Example 30-A, 4-(((2S,5R)-5-((R)-(6-chloropyridin-3-yl)(hydroxy)methyl)pyrrolidin-2-yl)methyl)-N-((6-chloropyridin-3-yl)methyl)-N-methylbenzamide], the EC50 is 0.003 µM and the “Human β3-AR Agonist Activity (%)” value was 99%.
Take `Cc1cc([C@@H](O)[C@H]2CC[C@@H](Cc3ccc(C(=O)N(C)Cc4cccnc4)cc3)N2)cnc1Cl` [Example 21-S, 4-(((2S,5R)-5-((R)-(6-chloro-5-methylpyridin-3-yl)(hydroxy)methyl)pyrrolidin-2yl)methyl)-N-methyl-N-(pyridin-3-ylmethyl)benzamide]: the half-maximal effective concentration (EC50) turned out to be 0.307 µM, the “Fold drop in potency vs. 2-chloropyridine analog” value was determined as 72.1 fold and the “Human β3-AR Agonist Activity (%)” value worked out at 84%.
Regarding `COc1ccc(CN(C)C(=O)c2ccc(C[C@@H]3CC[C@H]([C@H](O)c4ccc(Cl)nc4)N3)cc2)cn1` [Example 29-A, 4-(((2S,5R)-5-((R)-(6-chloropyridin-3-yl)(hydroxy)methyl)pyrrolidin-2-yl)methyl)-N-((6-methoxypyridin-3-yl)methyl)-N-methylbenzamide], the EC50 came out at 0.017 µM and the “Human β3-AR Agonist Activity (%)” value was determined as 94%.
Regarding `CN(Cc1cccnc1)C(=O)c1ccc(C[C@@H]2CC[C@H]([C@H](O)c3ccc(N)nc3)N2)cc1` [Example 21-M, 4-(((2S,5R)-5-((R)-(6-aminopyridin-3-yl)(hydroxy)methyl)pyrrolidin-2-yl)methyl)-N-methyl-N-(pyridin-3-ylmethyl)benzamide], the half-maximal effective concentration (EC50) turned out to be 0.02 µM, the “Fold drop in potency vs. 2-chloropyridine analog” value was 4.7 fold and the “Human β3-AR Agonist Activity (%)” value was 97%.
As to `CN(Cc1n[nH]c2c1CCC2)C(=O)c1ccc(C[C@@H]2CC[C@H]([C@H](O)c3ccc(Cl)nc3)N2)cc1` [Example 13-A, 4-(((2S,5R)-5-((R)-(6-chloropyridin-3-yl)(hydroxy)methyl)pyrrolidin-2-yl)methyl)-N-methyl-N-((1,4,5,6-tetrahydrocyclopenta[c]pyrazol-3-yl)methyl)benzamide], the EC50 is 0.002 µM and the “Human β3-AR Agonist Activity (%)” value came out at 99%.
Regarding `CN(Cc1cncc(-c2nn[nH]n2)c1)C(=O)c1ccc(C[C@@H]2CC[C@H]([C@H](O)c3ccccc3)N2)cc1` [Example 37-B, N-((5-(1H-tetrazol-5-yl)pyridin-3-yl)methyl)-4-(((2S,5R)-5-((R)-hydroxy(phenyl)methyl)pyrrolidin-2-yl)methyl)-N-methylbenzamide], the EC50 was 0.063 µM, the “Fold drop in potency vs. 2-chloropyridine analog” value stood at 2.4 fold and the “Human β3-AR Agonist Activity (%)” value turned out to be 101%.
On to `CN(Cc1cccnc1)C(=O)c1ccc(C[C@@H]2CC[C@H]([C@H](O)c3ccc(C(N)=O)nc3)N2)cc1` [Example 21-K, 5-((R)-hydroxy((2R,5S)-5-(4-(methyl(pyridin-3-ylmethyl)carbamoyl)benzyl)pyrrolidin-2-yl)methyl)picolinamide], for which the EC50 came out at 0.112 µM, the “Fold drop in potency vs. 2-chloropyridine analog” value stood at 26.3 fold and the “Human β3-AR Agonist Activity (%)” value is 87%.
Turning to `COC(CN(C)C(=O)c1ccc(C[C@@H]2CC[C@H]([C@H](O)c3ccccc3)N2)cc1)c1cccc(=O)[nH]1` (stereo partly drawn) [Example 3-B, 4-(((2S,5R)-5-((R)-hydroxy(phenyl)methyl)pyrrolidin-2-yl)methyl)-N-(2-methoxy-2-(6-oxo-1,6-dihydropyridin-2-yl)ethyl)-N-methylbenzamide], the EC50 was 0.41 µM, the “Fold drop in potency vs. 2-chloropyridine analog” value was 2.0 fold and the “Human β3-AR Agonist Activity (%)” value came to 101%.
